# Source: the OPERA property sets (Mansouri et al. 2018)
# Conditions: not given
Structure (SMILES),boiling point,melting point,log10 vapour pressure (mmHg),log10 Koc (L/kg),log10 Henry constant (atm·m³/mol),ready biodegradability,log10 Koa,log10 biodegradation half-life (days)
COC(=O)C(C)O (configuration not stated),145 °C,-66 °C,,,,,,
CC(C)Sc1ccccc1,208 °C,,,,,,,
COS(=O)(=O)[O-].C[N+]1(C)CCN(CC(O)(c2ccccc2)C2CCCCC2)CC1 (configuration not stated),,205 °C,,,,,,
C=CCN=C(S)NCCO,,78 °C,,,,,,
CCC(C)(C)I,124 °C,,,,,,,
Cc1cc(C)c(N(C)C)c(C)c1,214 °C,,,,,,,
CN(C)c1ccc([N+](=O)[O-])cc1,,164 °C,-5.22,,,,,
CCOc1cc(NC(C)=O)ccc1C(=O)OC,,148 °C,,,,,,
Cc1ccc(C(N)=O)cc1,,162 °C,,1.78,,,,
O=C(O)c1cc(F)c(F)c(F)c1,,98 °C,,,,,,
O=C(O)c1ccc(F)c(F)c1F,,141 °C,,,,,,
CCCCCSC,145 °C,-94 °C,,,,,,
CCCC(=O)O,,-5.7 °C,0.217,,-6.27,readily biodegradable,,
FSC(F)(F)F,148 °C,,,,,,,
O=C(C1CCCCC1)N1CC(=O)N2CCc3ccccc3C2C1 (configuration not stated),,136 °C,,,,,,
C[C@@H](Br)C(=O)Cl,132 °C,,,,,,,
CCCC(C)N (configuration not stated),92 °C,,,,,,,
CC(CCO)CCCC(C)(C)O (configuration not stated),265 °C,,,,,,,
CCCCCCCCCCCCCCCCCCO,,59.5 °C,-5.57,,,readily biodegradable,10.9,
N#Cc1ccncc1,214 °C,79 °C,,,-6.03,,,
CC/C(=C(/CC)c1ccc(O)cc1)c1ccc(O)cc1,,,,4.14,,,,
CC(=O)c1ccc2ccccc2c1,302 °C,56 °C,-3.21,2.93,,,,
O=C(Cl)c1ccccc1O,,19 °C,,,,,,
Clc1cccc(Cl)c1Br,242 °C,65 °C,,,,,,
CSc1nc2ccccc2s1,,44 °C,,,,,,
CCCC(O)C(C)C (configuration not stated),141 °C,,0.129,,,,,

Structure (SMILES),boiling point,melting point,log10 vapour pressure (mmHg),log10 Koc (L/kg),log10 Henry constant (atm·m³/mol),ready biodegradability,log10 Koa,log10 biodegradation half-life (days)
CC(C)OC(=O)OC(C)C,147 °C,,,,,,,
Clc1cccc2ccccc12,259 °C,-2.5 °C,-1.54,,-3.45,not readily biodegradable,5.8,
CNCC(OC)OC,140 °C,,,,,,,
Cc1cc(C2CC2)nc(Nc2ccccc2)n1,,75.9 °C,-5.43,,,,,
CCOP(=O)(SC(C)CC)SC(C)CC (configuration not stated),,,-3.05,,,,,
CC(C)CCCCCCCCCCCO,,10.5 °C,,,,,,
CCCCCCc1ccc(-c2ccc(C#N)cc2)cc1,,,,,,not readily biodegradable,,
CCCCC,,-130 °C,2.71,,0.0969,readily biodegradable,1.96,0.699
Nc1ncccn1,,128 °C,,,,,,
ClCC(Cl)Cl,114 °C,-36.6 °C,1.36,1.89,-3.08,not readily biodegradable,3.4,
N#Cc1ccc(N)c2ccccc12,,176 °C,,,,,,
O=C(O)CNC(=O)c1ccccc1,,192 °C,,,,readily biodegradable,,
CCCCOCC,92.3 °C,-124 °C,1.71,,,,,
c1ccc2c(N=Nc3cccc4ccccc34)cccc2c1,,190 °C,,,,,,
CCc1nc(C)c[nH]1,294 °C,50.5 °C,,,,,,
CCOC(=O)c1ccc(O)c(OC)c1,292 °C,44 °C,,,,,,
Cc1ccc(C(=O)NS(=O)(=O)c2ccc(N)cc2)cc1C,,222 °C,,,,,,
COc1cc(O)c2c(=O)c(O)c(-c3ccc(O)c(O)c3)oc2c1,,295 °C,,,,,,
CNC(=O)COC(=O)c1ccccc1,,112 °C,,,,,,
ClC(Cl)(Br)Br,150 °C,38 °C,,,,,,
C#CC#C,10.3 °C,-36.4 °C,3.12,,,,,
O=C(OCC(=O)N1CCCCC1)c1ccccc1,,88 °C,,,,,,
Nc1ccc(Sc2ccc(N)cc2)cc1,361 °C,108 °C,,2.04,,,,
NC(=O)Cc1ccccc1,,157 °C,,,,,,
COP(=S)(OC)SCN1C(=O)c2ccccc2C1=O,,72 °C,-6.31,2.91,,,,
Oc1ccc(Sc2ccc(O)cc2)cc1,,155 °C,,,,,,

Structure (SMILES),boiling point,melting point,log10 vapour pressure (mmHg),log10 Koc (L/kg),log10 Henry constant (atm·m³/mol),ready biodegradability,log10 Koa,log10 biodegradation half-life (days)
CCCCCCCCCCCCCCCCCCCCCCCCCC(=O)O,,88.5 °C,,,,,,
O=C1OCc2ccccc21,290 °C,75 °C,-2.7,,,readily biodegradable,,
Oc1ccc(F)c(F)c1F,,32 °C,,,,,,
Brc1cc(Br)c(Br)c(Br)c1Br,,160 °C,,,,,,
Cc1ccc(C(=O)O)c(O)c1,,177 °C,,,,,,
COc1cccc(OC)c1O,261 °C,56.5 °C,,,-6.64,,,
Cc1ccc(C(C)C)c(OC(=O)NCCC(C)C)c1,,57 °C,,,,,,
Cl[Si](Cl)(Cl)c1ccccc1,201 °C,,-0.371,,,,,
CC1CC(OC(=O)C(O)c2ccccc2)CC(C)(C)C1 (configuration not stated),,56 °C,,,,,,
Cc1ccc(CCO)cc1,244 °C,,,,,,,
O=C1OC(=O)c2ccccc21,295 °C,131 °C,-3.29,1.56,,readily biodegradable,,
CCOC(=O)C(Br)(Br)Br,225 °C,,,,,,,
CCCCCOC(C)=O,149 °C,-70.8 °C,0.544,,-3.41,,4.12,
O=C(CCl)c1cccc([N+](=O)[O-])c1,,,-5.06,,,,,
OCCOCCO,246 °C,-10.4 °C,-2.24,,,readily biodegradable,,
O=C=Nc1cccc([N+](=O)[O-])c1,,51 °C,,,,,,
CCN(CC)CCO,163 °C,,0.146,,,not readily biodegradable,,
O=c1c(O)c(-c2ccc(O)c(O)c2)oc2cc(O)ccc12,,330 °C,,,,,,
CCCC1CCCC1,131 °C,-117 °C,1.09,,,,,
Cc1c(F)c(F)cc(F)c1F,126 °C,,,,,,,
NC(=O)NC1NC(=O)NC1=O (configuration not stated),,238 °C,,,,,,
CNC(=O)O/N=C1\[C@@H](Cl)[C@@H]2C[C@H](C#N)[C@H]1C2,,144 °C,,,,,,
CC(C)(C)c1ccc(O)c(C(C)(C)C)c1,264 °C,56.5 °C,-2.32,,,not readily biodegradable,,
CCCCCCCCCc1cccc2ccccc12,366 °C,8 °C,,,,,,
CC(C)CCS,120 °C,,1.31,,,,,

# Same assay, conditions: fish
Structure (SMILES),log10 biotransformation half-life (days),log10 BCF
Clc1cc(-c2cc(Cl)c(Cl)c(Cl)c2Cl)cc(Cl)c1Cl,2.32,
CCCCCCc1ccc(-c2ccc(C#N)cc2)cc1,0.85,3.52
ClCC(Cl)Cl,-1.01,0.7
COP(=S)(OC)SCN1C(=O)c2ccccc2C1=O,,0.26
CC(C)(C)c1ccc(O)c(C(C)(C)C)c1,-0.37,2.4
